Reference: US20260224520A1, “ABC TRANSPORTER EXPRESSION PROMOTING AGENT, CHOLESTEROL EXCRETION PROMOTING AGENT, INFLAMMATORY CYTOKINE PRODUCTION INHIBITING AGENT, ANTI-INFLAMMATORY AGENT, AND ARTERIOSCLEROSIS PREVENTING AGENT” (MEIJI CO., LTD., priority 2022, published 2026)
“Also recorded” adds a separate entry of the source.

Legend:
[1] = system: Human macrophage-like THP-1 cells; assay: Cholesterol excretion promoting activity of fatty acids, fluorometry, 24 h pre-culture with the substance; format: cell-based; conditions: for cholesterol excretion promoting activity (in words): conclusion from Tables 5A and 8
Procedure: Human macrophage-like THP-1 cells were seeded in a 96-well plate so as to be 2.0×10^5 cells/well, and allowed to differentiate for 72 hours. The medium was then replaced with RPMI 1640 medium containing 0.02% by mass of bovine serum albumin (BSA), 10 to 40 μg/mL (final concentration in the well) of 10-hydroxypalmitic acid (Angene) was added, and the cells were cultured for 24 hours. The medium was then replaced with Dulbecco's Modified Eagle Medium (DMEM) containing 0.02% by mass of BSA and 6 mM of sodium taurocholate, and the medium was recovered after 4 hours. The level of cholesterol excreted from the cells (the cholesterol level in the recovered medium) was measured in the same manner as in Example 1 to evaluate the cholesterol excretion promoting activity of 10-hydroxypalmitic acid (n=3).
In the same manner as in Example 5A, the cholesterol excretion promoting activities of 10-hydroxypalmitic acid and other hydroxypalmitic acids (2-hydroxypalmitic acid (Tokyo Chemical Industry Co., Ltd.), 3-hydroxypalmitic acid (Sigma-Aldrich), 16-hydroxypalmitic acid (Tokyo Chemical Industry Co., Ltd.), and 10-hydroxypalmitic acid), which may be contained in Camembert cheese, as well as palmitic acid to which no hydroxyl group was added (Sigma) were evaluated (n=6 to 11).

IL-6 = IL-6 mRNA expression level by real-time PCR in THP-1 cells with or without inflammation induction; format: cell-based, Human; conditions: 24 h, DMSO-control = 1
Procedure: (§1) Human macrophage-like THP-1 cells were seeded in a 24-well plate so as to be 1.0×10^6 cells/well, and allowed to differentiate for 72 hours. The medium was then replaced with RPMI 1640 medium containing: 0.02% by mass of bovine serum albumin (BSA); either dimethyl sulfoxide (DMSO) or 20 μg/mL of 10-hydroxypalmitic acid; and either 50 μg/mL of oxidized LDL (oxLDL) (Invitrogen), 50 μg/mL of acetylated LDL (acLDL) (Invitrogen), 5 μM of T0901317+5 μM of 9-cis-retinoic acid (T0+RA), or 1 μg/mL of lipopolysaccharide (LPS) (Sigma), or replaced with RPMI 1640 medium (control) containing: 0.02% by mass of bovine serum albumin (BSA); and either DMSO or 20 μg/mL 10-hydroxypalmitic acid, but not containing any of oxLDL, acLDL, T0+RA, and LPS, and the macrophage-like cells were cultured for 24 hours to induce inflammation. The medium was then replaced with Dulbecco's Modified Eagle Medium (DMEM) containing 0.02% by mass of BSA and 6 mM of sodium taurocholate, and the cells were cultured for 4 hours. The cells were then recovered, and the mRNA expression levels of IL-1 and IL-6, which are inflammatory markers (inflammatory cytokines), were measured by real-time PCR in the same manner as in Example 6 (n=4 to 6).

ABCG1 [2] = assay: ABCG1 mRNA expression level by real-time PCR in THP-1 cells; format: cell-based, Human; conditions: 20 μg/mL, 24 h; corrected with 18S ribosomal RNA; EtOH = 1; n=3
Procedure: (§2) Since the cholesterol excretion promoting activity of 10-hydroxypalmitic acid was confirmed, the effect of 10-hydroxypalmitic acid on ABC transporters was evaluated. Specifically, human macrophage-like THP-1 cells were seeded in a 24-well plate so as to be 1.0×10^6 cells/well, and allowed to differentiate for 72 hours. The medium was then replaced with RPMI 1640 medium containing 0.02% by mass of bovine serum albumin (BSA), 20 μg/mL (final concentration in the well) of 10-hydroxypalmitic acid was added, the cells were cultured for 24 hours, then mRNA was extracted using RNeasy Minikit (Qiagen), reverse transcription was carried out using ReverTra Ace (Registered trademark) qPCR RT Master Mix with gDNA Remover (Toyobo), and the ABCA1 and ABCG1 mRNA expression levels were measured by real-time PCR using Thermal Cycler Dice TP800 (Takara). 18S ribosomal RNA was used as a control gene. The ABCA1 and ABCG1 mRNA expression levels were each corrected with the mRNA expression level of the control gene, and the ABC transporter expression promoting activity of 10-hydroxypalmitic acid was evaluated (n=3).

[3] = system: Human macrophage-like THP-1 cells; assay: Cholesterol excretion promoting activity of 10-hydroxypalmitic acid by colorimetry; format: cell-based
Procedure: The cholesterol excretion promoting activity of 10-hydroxypalmitic acid was also examined by colorimetry. Specifically, human macrophage-like THP-1 cells were seeded in a 6-well plate so as to be 4.0×10^6 cells/well, and allowed to differentiate for 72 hours. The medium was then replaced with RPMI 1640 medium containing 0.02% by mass of bovine serum albumin (BSA), 20 μg/mL (final concentration in the well) of 10-hydroxypalmitic acid (Angene) was added, and the cells were cultured for 24 hours and then recovered. Lipids were then extracted using methanol and chloroform, and the level of cholesterol excreted from the cells (the cholesterol level in the recovered medium) was measured using a free cholesterol assay kit (Fujifilm Wako Pure Chemical Corporation) to evaluate the cholesterol excretion promoting activity of 10-hydroxypalmitic acid (n =3).

[4] = system: Human macrophage-like THP-1 cells; assay: Cholesterol excretion promoting activity in an inflammation-induced state, fluorometry (Amplex Red); format: cell-based; conditions: for Cholesterol excretion level (Average # standard deviation): DMSO-control = 1, n=4
Procedure: Human macrophage-like THP-1 cells were seeded in a 24-well plate so as to be 1.0×10^6 cells/well, and allowed to differentiate for 72 hours. The medium was then replaced with RPMI 1640 medium containing: 0.02% by mass of bovine serum albumin (BSA); either dimethyl sulfoxide (DMSO) or 20 μg/mL of 10-hydroxypalmitic acid; and either 50 μg/mL of oxidized LDL (oxLDL) (Invitrogen), 50 μg/mL of acetylated LDL (acLDL) (Invitrogen), 5 μM of T0901317+5 μM of 9-cis-retinoic acid (T0+RA), or 1 μg/mL of LPS (Sigma), or replaced with RPMI 1640 medium (control) containing: 0.02% by mass of BSA; and either DMSO or 20 μg/mL 10-hydroxypalmitic acid, but not containing any of oxLDL, acLDL, T0+RA, and LPS, and the macrophage-like cells were cultured for 24 hours to induce inflammation. The medium was then replaced with Dulbecco's Modified Eagle Medium (DMEM) containing 0.02% by mass of BSA and 6 mM of sodium taurocholate, and the cells were cultured for 4 hours. The medium was then recovered, and the level of cholesterol excreted from the cells (the cholesterol level in the recovered medium) was measured by fluorometry using Amplex Red to evaluate the cholesterol excretion promoting activity of 10-hydroxypalmitic acid in an inflammation-induced state (n=4).

ABCA1 [5] = assay: ABCA1 mRNA expression level by real-time PCR in THP-1 cells; format: cell-based, Human; conditions: 20 μg/ml, 24 h; corrected with 18S ribosomal RNA; EtOH = 1; n=3
Procedure: as §2

ABCA1 [6] = assay: ABCA1 protein expression level by Western blotting in THP-1 cells; format: cell-based, Human; conditions: 20 μg/mL, 24 h; corrected with actin; DMSO = 1; n=3
Procedure: (§3) The ABCA1 and ABCG1 protein expression levels were evaluated. Specifically, cells cultured in the same manner as in Example 6 were recovered, SDS-PAGE and blotting were carried out using the 10% minigel shown in Table 7A and, after blocking, the protein expression levels were measured by Western blotting using a primary antibody (anti-mouse monoclonal ABCA1 (KM3110) or anti-rabbit polyclonal ABCG1 (H65) (Novus)) and anti-actin (Sigma) as a loading control (n=3). The protein expression levels were quantified with CS Analyzer 4 […]. The ABCA1 and ABCG1 protein expression levels were each corrected with the actin protein expression level.

IL-1 = IL-1 mRNA expression level by real-time PCR in THP-1 cells with or without inflammation induction; format: cell-based, Human; conditions: 24 h, DMSO-control = 1
Procedure: as §1

ABCG1 [7] = assay: ABCG1 protein expression level by Western blotting in THP-1 cells; format: cell-based, Human; conditions: 20 μg/mL, 24 h; corrected with actin; DMSO = 1; n=3
Procedure: as §3

[8] = same manner as Example 5A, concentration not given, EtOH = 1, n=6 to 11
[9] = 20 μg/mL with T0 + RA (5 μM each)
[10] = 20 μg/mL, Control (no inducer), n=4 to 6

SMILES: CCCCCCCCCCCCCCC(O)C(=O)O (stereo not drawn) [2-Hydroxypalmitic acid, 2-hydroxypalmitic acid, reference compound]
- Cholesterol excretion level (Average ± standard deviation) [1, 8]: 0.970 ± 0.175 relative value

SMILES: CCCCCCCCCCCCCC(O)CC(=O)O (stereo not drawn) [3-Hydroxypalmitic acid, 3-hydroxypalmitic acid, reference compound]
- Cholesterol excretion level (Average ± standard deviation) [1, 8]: 1.094 ± 0.271 relative value

SMILES: CCCCCCC(O)CCCCCCCCC(=O)O (stereo not drawn) [10-hydroxypalmitic acid]
- IL-6 mRNA expression level (Average ± standard deviation) (IL-6; 20 μg/mL with 1 μg/mL LPS): 0.530 ± 0.107 relative value
- IL-6 mRNA expression level (Average ± standard deviation) (IL-6; 20 μg/mL with 50 μg/mL acLDL): 0.363 ± 0.149 relative value
- IL-6 mRNA expression level (Average ± standard deviation) (IL-6; 20 μg/mL with 50 μg/mL oxLDL): 0.167 ± 0.029 relative value
- IL-6 mRNA expression level (Average ± standard deviation) (IL-6; [9]): 0.095 ± 0.050 relative value
- IL-6 mRNA expression level (Average ± standard deviation) (IL-6; [10]): 0.104 ± 0.032 relative value
- ABCG1 mRNA expression level (Average ± standard deviation) (ABCG1 [2]): 2.953 ± 0.195 relative value
- Cholesterol excretion level (Average ± standard deviation) ([1]; 10 μg/mL, 24 h, DMSO = 1, n=3): 1.553 ± 0.102 relative value
- Cholesterol excretion level (Average ± standard deviation) ([1]; 20 μg/mL, 24 h, DMSO = 1, n=3): 1.685 ± 0.138 relative value
- Cholesterol excretion level (Average ± standard deviation) ([1]; 30 μg/mL, 24 h, DMSO = 1, n=3): 2.313 ± 0.479 relative value
- Cholesterol excretion level (Average ± standard deviation) ([1]; 40 μg/mL, 24 h, DMSO = 1, n=3): 1.872 ± 0.374 relative value
- cholesterol excretion promoting activity (in words) [1]: concentration-dependent cholesterol excretion promoting activity; also recorded: had a cholesterol excretion promoting activity
- Cholesterol excretion level (Average ± standard deviation) [1, 8]: 1.331 ± 0.500 relative value
- Cholesterol excretion level (Average ± standard deviation) ([3]; 20 μg/mL, 24 h, DMSO = 1, n=3): 1.569 ± 0.317 relative value
- cholesterol excretion promoting activity (in words) ([3]; conclusion from Table 5B): confirmed
- Cholesterol excretion level (Average # standard deviation) ([4]; 20 μg/mL with 1 μg/mL LPS): 9.320 ± 3.477 relative value
- Cholesterol excretion level (Average # standard deviation) ([4]; 20 μg/mL with 50 μg/mL acLDL): 1.821 ± 0.426 relative value
- Cholesterol excretion level (Average # standard deviation) ([4]; 20 μg/mL with 50 μg/mL oxLDL): 2.389 ± 0.628 relative value
- Cholesterol excretion level (Average # standard deviation) [4, 9]: 33.159 ± 10.920 relative value
- Cholesterol excretion level (Average # standard deviation) ([4]; 20 μg/mL, Control (no inducer)): 3.588 ± 1.302 relative value
- cholesterol excretion promoting activity (in words) ([4]; inflammation-induced state or ABC transporters induced by T0+RA, conclusion from Table 10): had a cholesterol excretion promoting activity
- ABCA1 mRNA expression level (Average ± standard deviation) (ABCA1 [5]): 2.870 ± 0.267 relative value
- ABCA1 protein expression level (Average ± standard deviation) (ABCA1 [6]): 2.607 ± 0.559 relative value
- IL-1 mRNA expression level (Average ± standard deviation) (IL-1; 20 μg/mL with 1 μg/mL LPS): 0.450 ± 0.390 relative value
- IL-1 mRNA expression level (Average ± standard deviation) (IL-1; 20 μg/mL with 50 μg/mL acLDL): 0.389 ± 0.067 relative value
- IL-1 mRNA expression level (Average ± standard deviation) (IL-1; 20 μg/mL with 50 μg/mL oxLDL): 0.419 ± 0.184 relative value
- IL-1 mRNA expression level (Average ± standard deviation) (IL-1; [9]): 0.185 ± 0.059 relative value
- IL-1 mRNA expression level (Average ± standard deviation) (IL-1; [10]): 0.200 ± 0.046 relative value
- ABCG1 protein expression level (Average ± standard deviation) (ABCG1 [7]): 2.541 ± 0.815 relative value

SMILES: O=C(O)CCCCCCCCCCCCCCCO [16-hydroxypalmitic acid]
- cholesterol excretion promoting activity (in words) [1]: had a cholesterol excretion promoting activity
- Cholesterol excretion level (Average ± standard deviation) [1, 8]: 1.406 ± 0.982 relative value

SMILES: CCCCCCCCCCCCCCCC(=O)O [Palmitic acid, palmitic acid, reference compound]
- Cholesterol excretion level (Average ± standard deviation) [1, 8]: 0.823 ± 0.268 relative value
